According to patent US8501936B2 (priority 2009, dated 2013):

Columns and labels:
human JAK2 = human JAK2 (Homo sapiens (Human), UniProt O60674); conditions: read-out: JAK2 IC50
human FAK = human FAK (Homo sapiens (Human), UniProt Q05397); conditions: read-out: FAK IC50
human FAK, sequence (Q05397 whole entry): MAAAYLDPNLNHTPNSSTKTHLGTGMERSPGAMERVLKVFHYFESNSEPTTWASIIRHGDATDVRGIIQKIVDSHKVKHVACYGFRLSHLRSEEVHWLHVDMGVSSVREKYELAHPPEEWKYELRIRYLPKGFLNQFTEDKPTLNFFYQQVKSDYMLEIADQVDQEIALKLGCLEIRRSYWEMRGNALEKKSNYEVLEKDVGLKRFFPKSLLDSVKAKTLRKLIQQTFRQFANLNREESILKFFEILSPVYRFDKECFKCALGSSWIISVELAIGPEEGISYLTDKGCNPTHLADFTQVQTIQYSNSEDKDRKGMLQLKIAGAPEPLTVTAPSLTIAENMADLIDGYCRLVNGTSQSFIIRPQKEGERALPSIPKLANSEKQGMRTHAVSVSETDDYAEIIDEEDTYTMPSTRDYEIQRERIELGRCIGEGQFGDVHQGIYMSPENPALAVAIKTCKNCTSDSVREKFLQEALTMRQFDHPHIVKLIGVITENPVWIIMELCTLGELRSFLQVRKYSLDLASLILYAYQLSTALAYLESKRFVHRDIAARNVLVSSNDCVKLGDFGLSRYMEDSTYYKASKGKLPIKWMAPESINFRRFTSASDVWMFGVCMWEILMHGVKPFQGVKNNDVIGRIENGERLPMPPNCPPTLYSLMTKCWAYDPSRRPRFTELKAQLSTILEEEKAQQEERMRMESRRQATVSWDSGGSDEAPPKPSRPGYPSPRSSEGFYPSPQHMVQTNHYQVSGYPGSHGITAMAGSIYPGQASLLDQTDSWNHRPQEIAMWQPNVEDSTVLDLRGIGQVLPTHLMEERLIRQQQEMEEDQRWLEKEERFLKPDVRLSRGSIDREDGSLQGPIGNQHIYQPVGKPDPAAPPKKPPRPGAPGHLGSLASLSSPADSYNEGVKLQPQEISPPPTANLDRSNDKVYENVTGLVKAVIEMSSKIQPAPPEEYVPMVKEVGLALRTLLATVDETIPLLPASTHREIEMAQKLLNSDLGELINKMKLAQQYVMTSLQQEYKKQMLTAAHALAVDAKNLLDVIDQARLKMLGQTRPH

human JAK2, sequence (O60674 815-1132): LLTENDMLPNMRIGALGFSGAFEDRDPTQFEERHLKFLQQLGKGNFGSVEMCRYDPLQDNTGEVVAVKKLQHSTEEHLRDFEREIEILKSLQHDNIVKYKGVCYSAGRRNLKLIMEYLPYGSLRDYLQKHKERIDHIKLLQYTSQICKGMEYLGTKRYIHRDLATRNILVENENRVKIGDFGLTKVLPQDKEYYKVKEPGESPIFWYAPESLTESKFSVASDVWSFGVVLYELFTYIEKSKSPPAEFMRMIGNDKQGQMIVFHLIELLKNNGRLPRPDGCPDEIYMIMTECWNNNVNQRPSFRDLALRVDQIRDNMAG

SMILES | IC50 (human JAK2) | IC50 (human FAK)
CS(=O)(=O)c1ccc(Oc2cccn3nc(Nc4cnn(CCN5CCCC5)c4)nc23)cc1 [Example 217, [8-(4-Methanesulfonyl-phenoxy)-[1,2,4]triazolo[1,5-a]pyridin-2-yl]-(1-(2-pyrrolidin-1-yl-ethyl)-1H-pyrazol-4-yl]-amine] | 3000 nM | 1220 nM
CS(=O)(=O)c1ccc(-c2cccn3nc(Nc4cccc(N5CCOCC5)c4)nc23)cc1 [Example 27, [8-(4-Methanesulfonyl-phenyl)-[1,2,4]triazolo[1,5-a]pyridin-2-yl]-(3-morpholin-4-yl-phenyl)-amine] | 0.4 nM | 2020 nM
CS(=O)(=O)c1ccc(-c2cccc3nc(Nc4ccc(CN5CCS(=O)(=O)CC5)cc4)nn23)cc1 [Example 115, N-{4-[(1,1-dioxidothiomorpholin-4-yl)methyl]phenyl}-5-[4-(methylsulfonyl)phenyl][1,2,4]triazolo[1,5-a]pyridin-2-amine] | 0.66 nM | 1050 nM
CS(=O)(=O)c1ccc(-c2cccn3nc(Nc4cccc(CN5CCOCC5)c4)nc23)cc1 [Example 46, [8-(4-Methanesulfonyl-phenyl)-[1,2,4]triazolo[1,5-a]pyridin-2-yl]-(3-morpholin-4-ylmethyl-phenyl)-amine] | 0.6 nM | 953 nM
CS(=O)(=O)c1ccccc1Nc1cccn2nc(Nc3ccc(OCCN4CCCC4)cc3)nc12 [Example 126, N(8)-(2-Methanesulfonyl-phenyl)-N(2)-[4-(2-pyrrolidin-1-yl-ethoxy)-phenyl]-[1,2,4]triazolo[1,5-a]pyridine-2,8-diamine] | 14.3 nM | 1300 nM
CN1CCC(c2ccc(Nc3nc4c(NCc5cccc(S(C)(=O)=O)c5)cccn4n3)cc2)CC1 [Example 162, N(8)-(3-Methanesulfonyl-benzyl)-N(2)-[4-(1-methyl-piperidin-4-yl)-phenyl]-[1,2,4]triazolo[1,5-a]pyridine-2,8-diamine] | 328 nM | 10000 nM
CN1CCN(c2cccc(Nc3nc4c(-c5ccc(P(C)(C)=O)cc5)cccn4n3)c2)CC1 [Example 198, {8-[4-(Dimethyl-phosphinoyl)-phenyl]-[1,2,4]triazolo[1,5-a]pyridin-2-yl}-[3-(4-methyl-piperazin-1-yl)-phenyl]-amine] | 1.73 nM | 10000 nM
CC(C)(C)OC(=O)N1CCN(c2cccc(Nc3nc4c(-c5ccc(S(C)(=O)=O)cc5)cccn4n3)c2)CC1 [Example 179, 4-{3-[8-(4-Methanesulfonyl-phenyl)-[1,2,4]triazolo[1,5-a]pyridin-2-ylamino]-phenyl}-piperazine-1-carboxylic acid tert-butyl ester] | 3.72 nM | 10000 nM
CN1CCN(c2cccc(Nc3nc4c(NCc5ccccc5S(C)(=O)=O)cccn4n3)c2)CC1 [Example 139, N(8)-(2-Methanesulfonyl-benzyl)-N(2)-[3-(4-methyl-piperazin-1-yl)-phenyl]-[1,2,4]triazolo[1,5-a]pyridine-2,8-diamine] | 26.3 nM | 200 nM
CN(Cc1ccccc1Nc1cccn2nc(Nc3ccc(OCCN4CCCC4)cc3)nc12)S(C)(=O)=O [Example 173, N-Methyl-N-(2-{2-[4-(2-pyrrolidin-1-yl-ethoxy)-phenylamino]-[1,2,4]triazolo[1,5-a]pyridin-8-ylamino}-benzyl)-methanesulfonamide] | 143 nM | 2000 nM
COc1ccc(C(F)(F)F)cc1-c1cccn2nc(Nc3ccc4c(c3)CCNC4)nc12 [Example 337, [8-(2-Methoxy-5-trifluoromethyl-phenyl)-[1,2,4]triazolo[1,5-a]pyridine-2-yl]-(1,2,3,4-tetrahydro-isoquinolin-6-yl)-amine] | 41.9 nM | 778 nM
CS(=O)(=O)c1ccc(-c2cccn3nc(NCCc4ccccn4)nc23)cc1 [Example 406, [8-(4-Methanesulfonyl-phenyl)-[1,2,4]triazolo[1,5-a]pyridin-2-yl]-(2-pyridin-2-yl-ethyl)-amine] | 10000 nM | 10000 nM
CN1CCN(c2cncc(Nc3nc4c(NCc5ccccc5N(C)S(C)(=O)=O)cccn4n3)n2)CC1 [Example 389, N-Methyl-N-(2-{[2-(4-methyl-3,4,5,6-tetrahydro-2H-[1,2′]bipyrazinyl-6′-ylamino)-[1,2,4]triazolo[1,5-a]pyridin-8-ylamino]-methyl}-phenyl)-methanesulfonamide] | 6500 nM | 1060 nM
CS(=O)(=O)c1ccc(-c2cccc3nc(Nc4ccc(N5CCOCC5)cc4)nn23)cc1 [Example 12, [5-(4-Methanesulfonyl-phenyl)-[1,2,4]triazolo[1,5-a]pyridin-2-yl]-(4-morpholin-4-yl-phenyl)-amine] | 0.7 nM | 434 nM
CS(=O)(=O)c1ccc(OCC(F)F)c(-c2cccn3nc(Nc4ccc5c(c4)CCNCC5)nc23)c1 [Example 372, {8-[2-(2,2-Difluoro-ethoxy)-5-methanesulfonyl-phenyl]-[1,2,4]triazolo[1,5-a]pyridin-2-yl}-(2,3,4,5-tetrahydro-1H-3-benzazepin-7-yl)-amine] | 600 nM | 10000 nM
C[C@@H](O)CN1CCN(c2cccc(Nc3nc4c(-c5ccc(S(C)(=O)=O)cc5)cccn4n3)c2)CC1 [Example 143, (R)-1-(4-{3-[8-(4-Methanesulfonyl-phenyl)-[1,2,4]triazolo[1,5-a]pyridin-2-ylamino]-phenyl}-piperazin-1-yl)-propan-2-ol] | 1.13 nM | 1990 nM
FC(F)(F)c1cccc(-c2cccn3nc(Nc4ccc5c(c4)CCNCC5)nc23)c1 [Example 375, (2,3,4,5-Tetrahydro-1H-3-benzazepin-7-yl)-[8-(3-trifluoromethyl-phenyl)-[1,2,4]triazolo[1,5-a]pyridin-2-yl]-amine] | 42.5 nM | 422 nM
CCOc1ccccc1-c1cccn2nc(Nc3ccc4c(c3)CCN(CCS(C)(=O)=O)CC4)nc12 [Example 245] | 70 nM | 10000 nM
CC(Nc1cccn2nc(Nc3ccc(N4CCN(C)CC4)cc3)nc12)c1ccccc1N(C)S(C)(=O)=O (centres unmarked) [Example 197, N-Methyl-N-[2-(1-{2-[4-(4-methyl-piperazin-1-yl)-phenylamino]-[1,2,4]triazolo[1,5-a]pyridin-8-ylamino}-ethyl)-phenyl]-methanesulfonamide] | 418 nM | 999 nM
CN1CCN(c2ccc(Nc3nc4cccc(-c5ccc(S(C)(=O)=O)cc5)n4n3)cc2)CC1 [Example 81, [5-(4-Methanesulfonyl-phenyl)-[1,2,4]triazolo[1,5-a]pyridin-2-yl]-[4-(4-methyl-piperazin-1-yl)-phenyl]-amine] | 6.9 nM | 421 nM
CN1CCN(c2ccc(Nc3nc4c(OCc5ccccc5N(C)S(C)(=O)=O)cccn4n3)cc2)CC1 [Example 195, N-Methyl-N-(2-{2-[4-(4-methyl-piperazin-1-yl)-phenylamino]-[1,2,4]triazolo[1,5-a]pyridin-8-yloxymethyl}-phenyl)-methanesulfonamide] | 15 nM | 21.8 nM
CN(c1ccc(-c2cccn3nc(Nc4ccc(CN5CCS(=O)(=O)CC5)cc4)nc23)cc1)S(C)(=O)=O [Example 119, N-{4-[2-({4-[(1,1-dioxidothiomorpholin-4-yl)methyl]phenyl}amino)[1,2,4]triazolo[1,5-a]pyridin-8-yl]phenyl}-N-methylmethanesulfonamide] | 0.27 nM | 10000 nM
